Legend:
[1] = tested on: DSS-induced colitis mice; assay: Drug efficacy in DSS-induced colitis mice (body weight loss, DAI, colon length); type: in vivo, BALB/c mice; settings: for body weight loss versus vehicle only controls / severity of disease (DAI score) versus vehicle alone / colon shortening versus vehicle alone: 5 mg/Kg oral twice a day, 5% DSS; for body weight loss versus vehicle only controls: FIG. 15, one-way ANOVA with Tukey post test; for severity of disease (DAI score) versus vehicle alone: FIG. 16, one-way ANOVA with Tukey post test; for colon shortening versus vehicle alone: FIG. 17, one-way ANOVA with Tukey post test
Description: BALB/c strain mice were from the Bioresources Unit (Trinity College Dublin). Mice were housed in individually ventilated and filtered cages under positive pressure (Tecniplast, Nothants, UK). Food and water were supplied ad libitum. All animal experiments were performed in compliance with Irish Department of Health and Children regulations and approved by the Trinity College Bioresources ethical review board.
All in vivo experiments were performed with six mice per group. […] Colitis scores were analyzed by Mann-Whitney test. P values <0.05 were considered significant. Results on the DIA, C/B and T/B MPO were expressed as means±S.E.
DSS ([…]; MP Biomedicals, OH) was dissolved in the drinking water of the mice. Fresh DSS solution was provided every second day. BALB/c mice were exposed to 5% DSS for six days. The mice were checked every day for morbidity and weight recorded. Induction of colitis was determined by weight loss, fecal blood and, upon autopsy, length of colon. Blood in feces was detected using a Hemdetect occult blood detection kit (Dipro, Austria).
To quantify induction of colitis, a disease activity index (DAI) was determined based on previous studies of DSS-induced colitis (Cooper 1993). DAI was calculated for each mouse daily based on body weight loss, occult blood and stool consistency/diarrhea. A score of […] was given for each parameter, with a maximum DAI score of 12. Score 0, No weight loss, normal stool, no blood; Score 1, 1-3% weight loss; Score 2, 3-6% weight loss, loose stool, blood visible in stool; Score 3, 6-9% weight loss; Score 4, […]. Loose stool was defined as the formation of a stool that readily becomes paste upon handling. Diarrhea was defined as no stool formation. Gross bleeding was defined as fresh blood on fur around the anus with extensive blood in the stool,
At autopsy the length of the colon was measured and a 1 cm section of colon was fixed in 10% formaldehyde-saline. H&E-stained sections were grading based on a scoring system modified from a previous study (Siegmund 2001). Histology scoring was performed in a blinded fashion. A combined score of inflammatory cell infiltration and tissue damage was determined as follows: Cell infiltration: Score 0, Occasional inflammatory cells in the LP; 1, Increased infiltrate in the LP predominantly at the base of crypts; 2, Confluence of inflammatory infiltrate extending into the mucosa; 3, Trans-mural extension of infiltrate. Tissue Damage Score 0, No mucosal damage; 1, Partial (up to 50%) loss of crypts in large areas; 2, Partial to total 50-100% loss of crypts in large areas, epithelium intact; 3, Total loss of crypts in large areas and epithelium lost.
The DSS induced colitis mice weighting about 18-20 grams were allowed 5% DSS water ad libitum and 100 μL of prednisolone and prodrug 2 in 1% solution cremophor and ethanol in water suspension (equivalent to 5 mg of prednisolone per Kg or mouse body weight) was orally administrated, twice a day (every twelve hours) to the colitis mice. Six days after the prednisolone and prodrugs treatments, the mice were sacrificed by cervical dislocation. The distal colon segment and the thymus were removed and washed to remove contents of the colon.
One centimetre of the distal colon segment and the fresh weight of the thymus were measured to obtain the ratios of distal colon weight and thymus weight to body weight (C/B and T/B respectively). The damage of the colon specimens were scored as describe in materials and methods. The distal segments were frozen by liquid nitrogen kept at −80° C. until assayed for myeloperoxidase activity (MPO).
Anti-inflammatory effects were studied by comparison of the distal colon length between healthy mice, untreated mice, prednisolone treated mice and prodrug treated mice. IBD causes shortering of the colon. […]

[2] = tested on: thymus; assay: Systemic side effects: thymus weight to body weight ratio in DSS-induced colitis mice; type: in vivo, BALB/c mice; settings: for T/BW ratio (thymus weight:body weight) versus vehicle-treated mice: 5 mg/Kg oral twice a day, 5% DSS, FIG. 18, one-way ANOVA with Tukey post test
Description: The DSS induced colitis mice weighting about 18-20 grams were allowed 5% DSS water ad libitum and 100 μL of prednisolone and prodrug 2 in 1% solution cremophor and ethanol in water suspension (equivalent to 5 mg of prednisolone per Kg or mouse body weight) was orally administrated, twice a day (every twelve hours) to the colitis mice. Six days after the prednisolone and prodrugs treatments, the mice were sacrificed by cervical dislocation. The distal colon segment and the thymus were removed and washed to remove contents of the colon. One centimetre of the distal colon segment and the fresh weight of the thymus were measured to obtain the ratios of distal colon weight and thymus weight to body weight (C/B and T/B respectively). The damage of the colon specimens were scored as describe in materials and methods. The distal segments were frozen by liquid nitrogen kept at −80° C. until assayed for myeloperoxidase activity (MPO). Systemic side effects were study by comparison of the thymus weight and body weight ratio (Hideki Yano 2002) between health mice, untreated mice, prednisolone treated mice and prodrug treated mice, due to the fact that an increase on the concentration of steroid in the bloodstream provokes suppression on the activity of the thymus and the consequent reduction of its weight.

[3] = Intramolecular lactamization (cyclization) kinetics of amino prodrugs in aqueous solution, HPLC; type: physicochemical; settings: 37° C., pH not given, read-out: calculated half-life of lactamization (T1/2=0.693/kobs) (converted)
Description: Release of steroid in vivo from the prodrugs hinges upon the cyclization of the amino steroid product of azo-reductase activity. The cyclization rates of the amino derivatives of cortisone A and B were monitored in aqueous solution at various pH values and at 37° C. by measuring remaining compound by HPLC along with the evolution of cortisone.
The first order rate constant for disappearance can be obtained from a plot of the natural log of remaining ester versus time. The half-life can be calculated (T1/2=0.693/kobs).

[4] = after 24 h at pH 7 (45° C.); cited from earlier work
[5] = rat intestinal perfusate; cited from earlier work
[6] = neutrality, 39° C.; cited from earlier work
[7] = 5 mg/Kg, Student's t-test, original analysis

Question: Which “body weight loss versus vehicle only controls” value [1] does the source give for CC12C=CC(=O)C=C1CCC1C2C(O)CC2(C)C1CCC2(O)C(=O)COC(=O)CCc1ccccc1/N=N/c1ccc(O)c(C(=O)O)c1 (stereo not drawn) [Mutual Prodrug 2, 5-(2-{2[2-(11,17-dihydroxy-10,13-dimethyl-10,13-dimethyl-3-oxo-6,7,8,9,10,11,12,13,14,15,16,17-dodecahydro-3H-cyclopenta[a]phenanthrene-17-yl)-2-oxo-ethoxycarbonyl]ethyl}-phenylazo}-2-hydroxy-benzoic acid] here?
Answer: weight loss was decreased

Question: And the “severity of disease (DAI score) versus vehicle alone” value [1]?
Answer: significantly reduced

Question: What about the “colon shortening versus vehicle alone” value [1] of the same molecule?
Answer: significantly less shortening

Question: What about the colon length [1, 7] of the same molecule?
Answer: significantly longer colon than the PRED

Question: What about the “T/BW ratio (thymus weight:body weight) versus vehicle-treated mice” value [2] of the same molecule?
Answer: not statistically different

Question: Which half-life [3] does the source give for CC12CCC(=O)C=C1CCC1C2C(O)CC2(C)C1CCC2(O)C(=O)COC(=O)CCc1ccccc1N (stereo not drawn) [prodrug B] here?
Answer: 84 min

Question: For CC12CCC(=O)C=C1CCC1C2C(O)CC2(C)C1CCC2(O)C(=O)COC(=O)Cc1ccccc1N (stereo not drawn) [prodrug A], which half-life [3] is on record?
Answer: 132 min

Question: With C[C@]12CCC(=O)C=C1CC[C@@H]1[C@@H]2[C@@H](O)C[C@@]2(C)[C@H]1CC[C@]2(O)C(=O)COC(=O)CCC(=O)O [hydrocortisone-21-succinate] as the molecule, how does the disappearance [4] read?
Answer: less than 5%

Question: What about the “first-order rate constant for hydrolysis” value [5] of the same molecule?
Answer: 0.003 min⁻¹

Question: What does the source list for C[C@]12C=CC(=O)C=C1CC[C@@H]1[C@@H]2[C@@H](O)C[C@@]2(C)[C@H]1CC[C@]2(O)C(=O)CO [Prednisolone]?
Answer: body weight loss versus vehicle only controls [1]: weight loss was decreased; severity of disease (DAI score) versus vehicle alone [1]: significantly reduced; colon shortening versus vehicle alone [1]: significantly less shortening; T/BW ratio (thymus weight:body weight) versus vehicle-treated mice [2]: significant reduction in T/BW ratio; thymus:BW ratio versus Untreated mice [2, 7]: significant reduction in thymus:BW ratio

Question: With COC(=O)CCc1ccccc1N [methyl 3-(2-aminophenyl)propionate] as the molecule, how does the “apparent first-order rate constant of spontaneous cyclization” value [6] read?
Answer: 0.0002 s⁻¹
